Data taken from ChEMBL document CHEMBL5244279, “Perspectives on SARS-CoV-2 Main Protease Inhibitors” (J Med Chem, 2021).

What was measured:
[1] = target: T1, Replicase polyprotein 1ab (Severe acute respiratory syndrome coronavirus 2, UniProt P0DTD1); assay: Inhibition of SARS CoV-2 Main protease using MCA-AVLQSGFR-Lys(DNP)-Lys-NH2 peptide as substrate by fluorescence based analysis
[2] = Inhibition of SARS CoV N-terminal his-tagged Main protease using Dabcyl-KTSAVLQSGFRKME-Edan peptide as substrate by fluorescence based analysis; parameters: species or system Severe acute respiratory syndrome-related coronavirus
[3] = Binding affinity to SARS CoV N-terminal his-tagged Main protease using Dabcyl-KTSAVLQSGFRKME-Edan peptide as substrate by fluorescence based analysis; parameters: species or system Severe acute respiratory syndrome-related coronavirus
SARS-CoV-2 [4] = type: functional, organism-based, Vero E6; settings: Severe acute respiratory syndrome coronavirus 2, Vero C1008
[5] = Cytotoxicity against mouse L929 cells assessed as reduction of cell viability; type: toxicity, cell-based
[6] = Cytotoxicity against cat CRFK cells assessed as reduction of cell viability; type: toxicity, cell-based, Felis catus
[7] = Cytotoxicity against human Huh-7 cells assessed as reduction of cell viability; type: toxicity, cell-based
SARS-CoV-2 [8] = type: functional, organism-based, Vero E6; settings: Severe acute respiratory syndrome coronavirus 2, strain 107, Vero C1008
[9] = target: T1, Replicase polyprotein 1ab; assay: Inhibition of SARS CoV-2 Main protease incubated for 10 min by FRET assay

**Q.** With `Cc1ccc(-n2sc3ccccc3c2=O)cc1` as the compound, how does the IC50 [1] read?
**A.** The IC50 was 330 nM.

**Q.** For `O=C(NCc1ccco1)c1ccc(-n2sc3ccccc3c2=O)cc1`, which IC50 [1] is on record?
**A.** The IC50 was 380 nM.

**Q.** With `CCCNC(=O)c1ccc(-n2sc3ccccc3c2=O)cc1` as the compound, how does the IC50 [1] read?
**A.** The IC50 was 230 nM.

**Q.** Which IC50 [1] does the source give for `Cn1sc2ccccc2c1=O` here?
**A.** The IC50 was 780 nM.

**Q.** With `O=C(Oc1ccc(S(=O)(=O)c2ccc(OC(=O)C(Cl)=C(Cl)Cl)cc2)cc1)C(Cl)=C(Cl)Cl` as the compound, how does the IC50 [2] read?
**A.** Its IC50 is 900 nM.

**Q.** For `CCN(CC)c1ccc(C(=O)On2nnc3ccccc32)cc1`, which Ki [3] is on record?
**A.** Its Ki is 11.1 nM.

**Q.** With `C=CCn1sc2ccccc2c1=O` as the compound, how does the IC50 [1] read?
**A.** The IC50 was 630 nM.

**Q.** For `O=c1[nH]sc2ccccc12`, which IC50 [1] is on record?
**A.** The IC50 was 660 nM.

**Q.** Which IC50 [1] does the source give for `CC(C)Cn1sc2ccccc2c1=O` here?
**A.** The IC50 was 480 nM.

**Q.** Which IC50 [1] does the source give for `O=C(O)c1ccc(-n2[se]c3ccccc3c2=O)cc1` here?
**A.** The IC50 was 130 nM.

**Q.** Which IC50 [1] does the source give for `COC(=O)c1ccc(-n2sc3ccccc3c2=O)cc1` here?
**A.** The IC50 was 360 nM.

**Q.** Which IC50 [1] does the source give for `O=C(O)Cn1[se]c2ccccc2c1=O` here?
**A.** Its IC50 is 410 nM.

**Q.** For `Nc1ccccc1-n1sc2ccccc2c1=O`, which IC50 [1] is on record?
**A.** The IC50 was 130 nM.

**Q.** For `CC(C)[C@H](NC(=O)[C@H](C)NC(=O)OCc1ccccc1)C(=O)N[C@@H](Cc1ccccc1)[C@@H](O)[C@H](O)[C@H](Cc1ccccc1)NC(=O)[C@@H](NC(=O)[C@H](C)NC(=O)OCc1ccccc1)C(C)C`, which Ki [2] is on record?
**A.** Its Ki is 600 nM.

**Q.** For `O=c1c2ccccc2sn1CCO`, which IC50 [1] is on record?
**A.** The IC50 was 410 nM.

**Q.** Which IC50 [1] does the source give for `O=c1c2ccccc2sn1-c1ccccc1` here?
**A.** Its IC50 is 490 nM.

**Q.** Which IC50 [1] does the source give for `O=C(O)CCn1[se]c2ccccc2c1=O` here?
**A.** Its IC50 is 350 nM.

**Q.** With `O=C(On1nnc2ccccc21)c1cc2ccccc2[nH]1` as the compound, how does the Ki [3] read?
**A.** Its Ki is 12.3 nM.

**Q.** For `O=C[C@H](C[C@@H]1CCNC1=O)NC(=O)[C@H](Cc1ccccc1)NC(=O)/C=C/c1ccc(Cl)cc1F`, which IC50 (SARS-CoV-2 [4]) is on record?
**A.** The IC50 was 200 nM.

**Q.** Which IC50 [1] does the source give for `O=c1c2ccccc2[se]n1CCN1CCOCC1` here?
**A.** The IC50 was 240 nM.

**Q.** Which IC50 [1] does the source give for `O=c1c2ccccc2[se]n1CCO` here?
**A.** The IC50 was 650 nM.

**Q.** With `CC(C)C[C@H](NC(=O)OCc1ccccc1)C(=O)N[C@H](C=O)C[C@@H]1CCNC1=O` as the compound, how does the CC50 [5] read?
**A.** Its CC50 is > 100000 nM.

**Q.** And the IC50 (SARS-CoV-2 [4])?
**A.** The IC50 was 70 nM.

**Q.** And the CC50 [6]?
**A.** Its CC50 is > 100000 nM.

**Q.** What does the source list for `CC(C)C[C@H](NC(=O)OCC1CCC(F)(F)CC1)C(=O)N[C@H](C=O)C[C@@H]1CCNC1=O`?
**A.** CC50 [5]: > 100000 nM; CC50 [6]: > 100000 nM; CC50 [7]: > 100000 nM

**Q.** For `CN(C)c1ccc(/C=C/C(=O)N[C@@H](Cc2ccccc2)C(=O)N[C@H](C=O)C[C@@H]2CCNC2=O)cc1`, which IC50 (SARS-CoV-2 [4]) is on record?
**A.** Its IC50 is 500 nM.

**Q.** Which results are given for `O=c1c2ccccc2sn1Cc1ccco1`?
**A.** IC50 [1]: 110 nM; Ki [1]: 78 nM

**Q.** For `CC(C)C[C@H](NC(=O)/C=C/c1ccccc1)C(=O)N[C@H](C=O)C[C@@H]1CCNC1=O`, which IC50 (SARS-CoV-2 [4]) is on record?
**A.** Its IC50 is 830 nM.

**Q.** For `Nc1ccccc1C(=O)On1nnc2ccccc21`, which Ki [3] is on record?
**A.** The Ki was 19.5 nM.

**Q.** Which EC50 (SARS-CoV-2 [8]) does the source give for `O=C[C@H](C[C@@H]1CCNC1=O)NC(=O)[C@@H]1[C@H]2CCC[C@H]2CN1C(=O)CCc1cc(F)cc(F)c1` here?
**A.** The EC50 was 5630 nM.

**Q.** For `O=C[C@H](C[C@@H]1CCNC1=O)NC(=O)[C@@H]1[C@H]2CCC[C@H]2CN1C(=O)COc1ccc(Cl)c(Cl)c1`, which EC50 (SARS-CoV-2 [8]) is on record?
**A.** The EC50 was 830 nM.

**Q.** What about the IC50 [9] of the same compound?
**A.** The IC50 was 30 nM.

**Q.** For `CC(C)C[C@H](NC(=O)OC1CCCCC1)C(=O)N[C@H](C=O)C[C@@H]1CCNC1=O`, which CC50 [5] is on record?
**A.** The CC50 was > 100000 nM.

**Q.** What about the IC50 (SARS-CoV-2 [4]) of the same compound?
**A.** The IC50 was 3900 nM.

**Q.** And the CC50 [6]?
**A.** Its CC50 is > 100000 nM.

**Q.** What about the CC50 [7] of the same compound?
**A.** The CC50 was > 100000 nM.

**Q.** Which results are given for `COc1ccc(OCC(=O)N2C[C@H]3[C@@H]([C@H]2C(=O)N[C@H](C=O)C[C@@H]2CCNC2=O)C3(C)C)cc1OC`?
**A.** EC50 (SARS-CoV-2 [8]): 1730 nM; IC50 [9]: 14.5 nM

**Q.** For `CC1(C)[C@@H]2[C@@H](C(=O)N[C@H](C=O)C[C@@H]3CCNC3=O)N(C(=O)COc3ccc(F)c(F)c3)C[C@@H]21`, which EC50 (SARS-CoV-2 [8]) is on record?
**A.** Its EC50 is 5570 nM.

**Q.** And the IC50 [9]?
**A.** The IC50 was 13.2 nM.

**Q.** With `CNc1ccc(C(=O)On2nnc3ccccc32)cc1` as the compound, how does the Ki [3] read?
**A.** The Ki was 12.1 nM.

**Q.** Which IC50 [1] does the source give for `CC(C)(C)OC(=O)NCn1[se]c2ccccc2c1=O` here?
**A.** Its IC50 is 330 nM.

**Q.** With `O=C(On1nnc2ccccc21)c1ccc2[nH]cnc2c1` as the compound, how does the Ki [3] read?
**A.** Its Ki is 22.9 nM.

**Q.** With `CC1(C)[C@@H]2[C@@H](C(=O)N[C@H](C=O)C[C@@H]3CCNC3=O)N(C(=O)COc3cc(F)cc(F)c3)C[C@@H]21` as the compound, how does the EC50 (SARS-CoV-2 [8]) read?
**A.** Its EC50 is 1640 nM.

**Q.** What about the IC50 [9] of the same compound?
**A.** Its IC50 is 18.5 nM.

**Q.** With `O=C[C@H](C[C@@H]1CCNC1=O)NC(=O)[C@@H]1[C@H]2CCC[C@H]2CN1C(=O)c1cccnc1` as the compound, how does the IC50 [9] read?
**A.** Its IC50 is 748 nM.
